# Test results: ChEMBL document CHEMBL1157860, “CoMFA and CoMSIA studies on HIV-1 attachment inhibitors” (Eur J Med Chem, 2010)
# Assay: Inhibition of HIV1 gp120 binding to CD4 in human HeLa cells by cell fusion assay
# Assay type: cell-based, Human immunodeficiency virus 1
SMILES,EC50,pEC50
C=CCn1cc(C(=O)C(=O)N2CCN(C(=O)c3ccccc3)CC2)c2ccccc21,6760 nM,5.17
N#Cc1ccc2[nH]cc(C(=O)C(=O)N3CCN(C(=O)c4ccccc4)CC3)c2c1,121000 nM,3.92
COc1ccc(Cl)c2[nH]cc(C(=O)C(=O)N3CCN(C(=O)c4ccccc4)CC3)c12,0.07 nM,10.15
CC(=O)Oc1ccc2[nH]cc(C(=O)C(=O)N3CCN(C(=O)c4ccccc4)CC3)c2c1,952 nM,6.02
O=C(C(=O)N1CCN(C(=O)c2ccccc2)CC1)c1c[nH]c2cc(Cl)ccc12,208 nM,6.68
O=C(C(=O)N1CCN(C(=O)c2ccccc2)CC1)c1c[nH]c2c(F)c(F)c(F)c(F)c12,1.7 nM,8.77
CCn1cc(C(=O)C(=O)N2CCN(C(=O)c3ccccc3)CC2)c2ccccc21,1450 nM,5.84
O=C(C(=O)N1CCN(C(=O)c2ccccc2)CC1)c1cn(Cc2ccccc2)c2ccccc12,13800 nM,4.86
CCCCn1cc(C(=O)C(=O)N2CCN(C(=O)c3ccccc3)CC2)c2ccccc21,2650 nM,5.58
O=C(C(=O)N1CCN(C(=O)c2ccccc2)CC1)c1c[nH]c2ccc([N+](=O)[O-])cc12,3800 nM,5.42
O=C(C(=O)N1CCN(C(=O)c2ccccc2)CC1)c1c[nH]c2c(Br)ccc(OC(F)(F)F)c12,42.8 nM,7.37
O=C(C(=O)N1CCN(C(=O)c2ccccc2)CC1)c1c[nH]c2ccc(Cl)cc12,395 nM,6.4
O=C(C(=O)N1CCN(C(=O)c2ccccc2)CC1)c1c[nH]c2c(Br)ccc(F)c12,0.13 nM,9.89
O=C(C(=O)N1CCN(C(=O)c2ccccc2)CC1)c1c[nH]c2cc(F)c(Br)c(F)c12,23.1 nM,7.64
O=C(C(=O)N1CCN(C(=O)c2ccccc2)CC1)c1c[nH]c2c(F)ccc(F)c12,0.35 nM,9.46
N#Cc1cccc2c(C(=O)C(=O)N3CCN(C(=O)c4ccccc4)CC3)c[nH]c12,4.9 nM,8.31
N#Cc1ccc(F)c2c(C(=O)C(=O)N3CCN(C(=O)c4ccccc4)CC3)c[nH]c12,1.9 nM,8.72
O=C(C(=O)N1CCN(C(=O)c2ccccc2)CC1)c1c[nH]c2cc(F)cc(F)c12,0.42 nM,9.38
COc1ccc(Br)c2[nH]cc(C(=O)C(=O)N3CCN(C(=O)c4ccccc4)CC3)c12,0.13 nM,9.89
Cc1ccc(F)c2c(C(=O)C(=O)N3CCN(C(=O)c4ccccc4)CC3)c[nH]c12,0.56 nM,9.25
COc1ccc(OC)c2c(C(=O)C(=O)N3CCN(C(=O)c4ccccc4)CC3)c[nH]c12,0.23 nM,9.64
COc1ccc(C#N)c2[nH]cc(C(=O)C(=O)N3CCN(C(=O)c4ccccc4)CC3)c12,0.06 nM,10.22
Cn1cc(C(=O)C(=O)N2CCN(C(=O)c3ccccc3)CC2)c2ccccc21,265 nM,6.58
COc1cc2[nH]cc(C(=O)C(=O)N3CCN(C(=O)c4ccccc4)CC3)c2cc1OC,46500 nM,4.33
COc1ccc(F)c2c(C(=O)C(=O)N3CCN(C(=O)c4ccccc4)CC3)c[nH]c12,0.06 nM,10.22
O=C(C(=O)N1CCN(C(=O)c2ccccc2)CC1)c1c[nH]c2c(Br)cc(F)cc12,73.1 nM,7.14
O=C(C(=O)N1CCN(C(=O)c2ccccc2)CC1)c1c[nH]c2cc(Cl)c(Cl)cc12,500 nM,6.3
O=C(C(=O)N1CCN(C(=O)c2ccccc2)CC1)c1c[nH]c2c(OCC(F)(F)F)ccc(F)c12,0.71 nM,9.15
O=C(C(=O)N1CCN(C(=O)c2ccccc2)CC1)c1c[nH]c2c(F)ccc(Br)c12,8.2 nM,8.09

# More lines, now with the values ahead:
EC50,pEC50,SMILES
2.59 nM,8.59,O=C(C(=O)N1CCN(C(=O)c2ccccc2)CC1)c1c[nH]c2cccc(F)c12
153 nM,6.82,O=C(C(=O)N1CCN(C(=O)c2ccccc2)CC1)c1c[nH]c2ccccc12
0.5 nM,9.3,CCOc1cccc2c(C(=O)C(=O)N3CCN(C(=O)c4ccccc4)CC3)c[nH]c12
4.5 nM,8.35,O=C(C(=O)N1CCN(C(=O)c2ccccc2)CC1)c1c[nH]c2cccc(Br)c12
150 nM,6.82,O=C(C(=O)N1CCN(C(=O)c2ccccc2)CC1)c1c[nH]c2cccc([N+](=O)[O-])c12
329 nM,6.48,COc1ccc2c(C(=O)C(=O)N3CCN(C(=O)c4ccccc4)CC3)c[nH]c2c1
24900 nM,4.6,CC(=O)Oc1cccc2[nH]cc(C(=O)C(=O)N3CCN(C(=O)c4ccccc4)CC3)c12
21100 nM,4.68,COc1ccc2[nH]cc(C(=O)C(=O)N3CCN(C(=O)c4ccccc4)CC3)c2c1
0.45 nM,9.35,CCOc1cccc2[nH]cc(C(=O)C(=O)N3CCN(C(=O)c4ccccc4)CC3)c12
838 nM,6.08,O=C(C(=O)N1CCN(C(=O)c2ccccc2)CC1)c1c[nH]c2ccc(F)cc12
1090 nM,5.96,O=C(C(=O)N1CCN(C(=O)c2ccccc2)CC1)c1c[nH]c2ccc(Br)cc12
1550 nM,5.81,Cc1ccc2[nH]cc(C(=O)C(=O)N3CCN(C(=O)c4ccccc4)CC3)c2c1
24.2 nM,7.62,CCc1cccc2c(C(=O)C(=O)N3CCN(C(=O)c4ccccc4)CC3)c[nH]c12
0.14 nM,9.85,CCCCOc1cccc2c(C(=O)C(=O)N3CCN(C(=O)c4ccccc4)CC3)c[nH]c12
17.4 nM,7.76,O=C(C(=O)N1CCN(C(=O)c2ccccc2)CC1)c1c[nH]c2c(Br)cccc12
89.5 nM,7.05,Cc1cccc2c(C(=O)C(=O)N3CCN(C(=O)c4ccccc4)CC3)c[nH]c12
20100 nM,4.7,O=C(C(=O)N1CCN(C(=O)c2ccccc2)CC1)c1c[nH]c2cccc(O)c12
7.3 nM,8.14,O=C(C(=O)N1CCN(C(=O)c2ccccc2)CC1)c1c[nH]c2c(F)cccc12
4.4 nM,8.36,O=C(C(=O)N1CCN(C(=O)c2ccccc2)CC1)c1c[nH]c2c(Cl)cccc12
6.6 nM,8.18,COc1cccc2c(C(=O)C(=O)N3CCN(C(=O)c4ccccc4)CC3)c[nH]c12
4.3 nM,8.37,O=C(C(=O)N1CCN(C(=O)c2ccccc2)CC1)c1c[nH]c2cccc(Cl)c12
0.52 nM,9.28,COc1cccc2[nH]cc(C(=O)C(=O)N3CCN(C(=O)c4ccccc4)CC3)c12
21.1 nM,7.68,O=C(C(=O)N1CCN(C(=O)c2ccccc2)CC1)c1c[nH]c2cc(F)ccc12
